In US8129547B2, “Anticoagulation of human blood ex vivo” (priority 2006, dated 2012):
pKi: −log10 of the molar value.

Columns and labels:
Plasma-kallikrein = molecular target: T1, Plasma-kallikrein (Homo sapiens, UniProt P03952); assay: Determination of Ki values, chromogenic substrate, Dixon evaluation: plasma-kallikrein; type: biochemical; details: 25° C., tris buffer pH 8.0, substrate Bz-Pro-Phe-Arg-pNA; read-out: Ki PK (plasma-kallikrein)
T1 construct: purchased Haemochrom Diagnostica GmbH (Essen, D)
T1 sequence (P03952 391-638 limits assumed): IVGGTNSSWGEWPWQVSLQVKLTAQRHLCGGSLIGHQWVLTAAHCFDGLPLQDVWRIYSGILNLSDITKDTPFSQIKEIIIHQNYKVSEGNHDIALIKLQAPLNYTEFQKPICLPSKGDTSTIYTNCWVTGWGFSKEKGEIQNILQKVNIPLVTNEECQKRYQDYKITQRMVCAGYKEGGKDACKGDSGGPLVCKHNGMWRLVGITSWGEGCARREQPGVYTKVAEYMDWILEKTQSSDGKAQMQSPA
T1 sequence (P03952 20-390 partner limits assumed): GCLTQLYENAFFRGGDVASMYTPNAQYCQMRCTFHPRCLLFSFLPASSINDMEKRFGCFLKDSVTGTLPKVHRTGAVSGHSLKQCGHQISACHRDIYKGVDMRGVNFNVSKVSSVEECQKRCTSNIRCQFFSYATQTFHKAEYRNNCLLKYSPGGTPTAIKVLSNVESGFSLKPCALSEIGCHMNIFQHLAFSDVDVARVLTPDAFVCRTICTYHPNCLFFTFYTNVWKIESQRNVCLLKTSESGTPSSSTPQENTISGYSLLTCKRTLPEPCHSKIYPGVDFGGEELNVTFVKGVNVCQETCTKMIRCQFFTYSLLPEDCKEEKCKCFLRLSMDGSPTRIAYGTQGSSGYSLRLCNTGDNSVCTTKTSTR
Text: In a particularly preferred embodiment the compound according to Formula (I) inhibits not only the blood coagulation factor XA but also thrombin and/or plasma kallikrein. […] Here too the Ki value stands for the dissociation constant of the respective enzyme-inhibitor complex. The determination of the Ki values of the inhibitors vis-a-vis thrombin and plasma kallikrein is preferably carried out in a similar manner to the determination, described above, of the Ki values of the inhibitors vis-a-vis the coagulation factor Xa, but in this case CH3SO2-D-HHT-gly-arg-pNA (with HHT=hexahydrothyrosin, and pNA=para-nitroaniline; sold under the commercial name Pefachrome tPA) are used as substrates in the case of thrombin and bz-pro-phe-arg-pNA (with bz=[…], and pNA=para-nitroaniline; sold under the commercial name Chromozym PK) in the case of plasma-kallikrein.
(§1) The inhibitors used here are the commercially available exemplary inhibitors Pefabloc tPA/Xa (2,7-bis(4-amidinobenzylidene)-cyclopeptanone-(1), Pentapharm Ltd. Basel, Switzerland), CJ-FXa (benzylsulphonyl-D-arginyl-glycyl-4-amidinobenzylamide, Haemochrom GmbH, Essen, Germany) and CJ-PK (benzylsulphonyl-D-seryl-carbobenzoxylsyl-4-amidinobenzylamide, Haemochrom GmbH, Essen, Germany). Research samples were available of DX-9065a ((+)-(2S)-2-[4-[[3S)-1-acetimidoyl-3-pyrrodinyl]oxy]phenyl]-3-[7-amidino-2-naphthyl]propanic acid, Daiichi Pharmaceutical Company Ltd., Tokyo, Japan), and Otamixaban (2-(R)-(3-carbamimidoylbenyzyl)-3-(R)-[4-(1-oxypyridin-4-yl)benzoylamino]-butyric acid-methylester, Sanofi-Aventis GmbH, Frankfurt, Germany), both of which are undergoing clinical tests. In order to examine the inhibitory action of these exemplarily used inhibitors on the blood coagulation factors plasma-kallikrein, VIIa, Xa, XIa and XIIa, the Ki values of the respective enzyme-inhibitor complexes were determined.
(§2) The enzymes were produced by Haemochrom Diagnostica GmbH (Essen, D) and were dissolved in 0.154 mol/l NaCl. The substrates (Pentapharm AG, Basel, CH) were dissolved in H2O and the inhibitor was dissolved in the above-mentioned tris buffer. The following substrates were used for the individual enzymes:
(§3) 200 μl of inhibitor solution were mixed with 25 μl of substrate for the determination and the reaction was started by the addition of 50 μl of enzyme. After a reaction time of 3-5 mins. 25 μl of acetic acid (50%) were added and the extinction was measured at 405 nm with a microplate reader (iEMS Reader MF 12401, Labsystems, Helsinki, Finland). The evaluation was carried out graphically according to Dixon (Biochem. J., 55, 170, 1953).
(§4) The enzymes were produced by Haemochrom Diagnostica GmbH (Essen, D), and only thrombin was manufactured in our own laboratory according to Walsmann (Pharmazie 23, 401-402, 1968). All the enzymes were dissolved in 0.154 mol/l NaCl. The substrates (Pentapharm AG, Basel, CH) were dissolved in H2O and the inhibitor was dissolved in the above-mentioned tris buffer. The following substrates were used for the individual enzymes:
as §3, with “1401,” for “12401,”

Factor XIIa = molecular target: T2, Factor XIIa (Homo sapiens, UniProt P00748); assay: Determination of Ki values, chromogenic substrate, Dixon evaluation: Factor XIIa; type: biochemical; details: 25° C., tris buffer pH 8.0, substrate H-D-HHT-Gly-Arg-pNA
T2 construct: purchased Haemochrom Diagnostica GmbH (Essen, D)
T2 sequence (P00748 373-615 limits assumed): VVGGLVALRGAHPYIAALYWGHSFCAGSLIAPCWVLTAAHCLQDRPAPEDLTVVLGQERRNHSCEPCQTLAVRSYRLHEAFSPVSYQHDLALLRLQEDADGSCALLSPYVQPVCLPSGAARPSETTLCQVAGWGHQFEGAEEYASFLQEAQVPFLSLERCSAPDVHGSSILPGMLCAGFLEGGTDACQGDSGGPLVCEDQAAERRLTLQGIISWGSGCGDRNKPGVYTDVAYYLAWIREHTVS
Text: as §1, §2, §3, §4
as §3, with “1401,” for “12401,”

thrombin formation = assay: Inhibition of thrombin formation (prothrombin fragment F1+2) in hirudin-anticoagulated plasma after activation by kaolin; type: biochemical, human; details: 37° C.
Experimental: In this example thrombin formation was activated in plasma anticoagulated with hirudin by the addition of kaolin and the ability of the inhibitors to inhibit thrombin formation was examined.
Blood sampled from a patient was initially anticoagulated by means of the thrombin inhibitor hirudin. For this purpose 9 parts of blood were mixed with 1 part of hirudin solution (recombinant hirudin HBW 023, Hoechst, Frankfurt, 2000 E/ml of physiological NaCl solution), then centrifuged for 10 minutes at 1300 revolutions per minute (rpm). 900 μl of the plasma anticoagulated with hirudin, present in excess, were mixed in polypropylene tubes with 50 μl of inhibitor solution or 0.9% NaCl solution and 50 μl kaolin suspension (from APTT-Test from Roche Diagnostics, diluted 1:250 before use with physiological NaCl solution), and incubated at 37° C. with light shaking. In this case kaolin acts as a non-physiological surface which activates the blood coagulation thereby finally stimulating thrombin formation. At certain times the quantity of the thrombin formed was determined immunologically on the basis of the formation of the prothrombin fragment F1+2 (Enzygnost F1+2 micro, Dade Behring GmbH, Marburg). This determination is based on an enzyme immunoassay according to the sandwich principle. For this purpose aliquot volumes (600 μl) were anticoagulated at certain times with 0.1 M EDTA (40 μl) and kept at −20° C. To determine the concentration of the prothrombin fragment F1+2 50 μl of plasma (if necessary diluted with PBS, phosphate-buffered saline) were incubated with monoclonal antibodies against the human prothrombin fragment F1+2, which were fixed on a microtitre plate included in the test kit. After a washing stage with PBS, which was used to remove sample material not bound by the antibodies, antibodies conjugated with peroxidase were incubated against human prothrombin binding to the free F1+2 determinants. […] This was then determined photometrically at a wavelength of 492 nm. […]

Row | Structure (SMILES) | pKi (Plasma-kallikrein) | pKi (Factor XIIa) | suppression of thrombin formation after kaolin activation (thrombin formation; inhibitor 100 μM) | suppression/blocking of thrombin formation after kaolin activation (thrombin formation; concentration not stated in the sentence (FIGS. 1-3, 6))
1 | N=C(N)c1ccc(C=C2CCCCC(=Cc3ccc(C(=N)N)cc3)C2=O)cc1 [Pefabloc tPA/Xa, 2,7-bis(4-amidinobenzylidene)-cycloheptanone-(1)] | 6.14 | 6.44 | totally suppressing thrombin formation | –
2 | COC(=O)[C@H](Cc1cccc(C(=N)N)c1)[C@@H](C)NC(=O)c1ccc(-c2cc[n+]([O-])cc2)cc1 (mixture of isomers) [Otamixaban, 2-(R)-(3-carbamimidoylbenyzyl)-3-(R)-[4-(1-oxypyridin-4-yl)benzoylamino]-butyric acid-methylester] | 7.59 | < 3.00 | – | particularly suitable for blocking thrombin formation
